The target in data set [1] is T1, influenza A RNA-dependent RNA polymerase (Influenza A virus, UniProt P03428+P03431+P03433). Nature of the data set: cell-based.
The test system of data set [2] is constitutive gene expression. Put plainly: Counter screen: separate reporter system with cell death-activated reporter construct (constitutive gene expression). The settings on record: for observed toxicity or efficacy in either assay tested: antiviral and counterscreen assay; for toxicity in antiviral and counterscreen assays: at 50uM, both antiviral and counterscreen assay. (The purpose of a counterscreen is to sort out artefacts and off-target activity.)

Data set [3] concerns influenza A/Puerto Rico/8/34 (H1N1) virus. It counts as cell-based.
In data set [4] the target is T1, influenza A RNA-dependent RNA polymerase.

The term IC50 denotes the midpoint of a concentration-inhibition curve. High values mean weaker potency in that assay, low ones greater potency in that assay. Molecule `COc1ccc(-c2c(C)nn3c(N4CCc5ccccc5C4)cc(C)nc23)cc1OC` [A0550, 2-(3-(3,4-dimethoxyphenyl)-2,5-dimethylpyrazolo[1,5-a]pyrimidin-7-yl)-1,2,3,4-tetrahydroisoquinoline] came in with a half-maximal inhibitory concentration (IC50) in data set [1] above 50 µM. Besides, the “observed toxicity or efficacy in either assay tested” value (from here on “observed toxicity or efficacy”) in data set [2] is >50 µM (no observed toxicity or efficacy in either assay tested).
Taken in the same sequence, the figures for `CCc1c(C)nc2cc(-c3cc(OC)cc(OC)c3)nn2c1NCCc1ccccc1` [A0527, 2-(3,5-dimethoxyphenyl)-6-ethyl-5-methyl-N-phenethylpyrazolo[1,5-a]pyrimidin-7-amine] were above 50 µM and >50 µM (no observed toxicity or efficacy in either assay tested).
In data set [1], `COc1ccc(-c2cc3c(=O)[nH]nc(SCc4ccccc4Cl)n3n2)cc1OC` [A0553, 7-(2-chlorobenzylthio)-2-(3,4-dimethoxyphenyl)pyrazolo[1,5-d][1,2,4]triazin-4(5H)-one] yielded an IC50 above 50 µM. The “observed toxicity or efficacy” value in data set [2] was >50 µM (no observed toxicity or efficacy in either assay tested).
On the same counts, the results for `Cc1cc(NCC(O)c2cccc(O)c2)n2nc(-c3cccc(F)c3)cc2n1` (stereo not drawn) [A0532, 3-(2-(2-(3-fluorophenyl)-5-methylpyrazolo[1,5-a]pyrimidin-7-ylamino)-1-hydroxyethyl)phenol] are above 50 µM and >50 µM (no observed toxicity or efficacy in either assay tested).
On the same counts, the results for `Cc1ccc(-c2cc3nc4c(c(NCCc5ccccn5)n3n2)CCC4)cc1` [A0437, N-(2-(pyridin-2-yl)ethyl)-2-p-tolyl-6,7-dihydro-5H-cyclopenta[d]pyrazolo[1,5-a]pyrimidin-8-amine] are above 50 µM and >50 µM (no observed toxicity or efficacy in either assay tested).
On the same counts, the results for `COc1ccc(-c2cc3nc(C)cc(NCc4ccc5c(c4)OCO5)n3n2)cc1` [A0530, N-(benzo[d][1,3]dioxol-5-ylmethyl)-2-(4-methoxyphenyl)-5-methylpyrazolo[1,5-a]pyrimidin-7-amine] are above 50 µM and >50 µM (no observed toxicity or efficacy in either assay tested).
For the molecule `COc1ccc(-c2cc3nc(C)cc(NCc4ccccc4)n3n2)cc1` [A0548, N-benzyl-2-(4-methoxyphenyl)-5-methylpyrazolo[1,5-a]pyrimidin-7-amine], the IC50 in data set [1] was above 50 µM. Also, in data set [2], the “observed toxicity or efficacy” value was >50 µM (no observed toxicity or efficacy in either assay tested).
Take `CCc1c(C)nc2cc(-c3ccc(F)cc3)nn2c1NCCc1ccccn1` [A0436, 6-ethyl-2-(4-fluorophenyl)-5-methyl-N-(2-(pyridin-2-yl)ethyl)pyrazolo[1,5-a]pyrimidin-7-amine]: the IC50 in data set [1] was above 10 µM. Further, the “toxicity in antiviral and counterscreen assays” value in data set [2] was >10uM (toxic to both antiviral and counterscreen at 50uM).
Regarding `Fc1ccc(-c2cc3nc4c(c(NCCc5ccccn5)n3n2)CCCC4)cc1` [A0441, 2-(4-fluorophenyl)-N-(2-(pyridin-2-yl)ethyl)-5,6,7,8-tetrahydropyrazolo[5,1-b]quinazolin-9-amine], in data set [1], the IC50 was above 10 µM. Further, in data set [2], the “toxicity in antiviral and counterscreen assays” value is >10uM (toxic to both antiviral and counterscreen at 50uM).
Consider `COc1ccc(-c2cc3nccc(NCc4ccccc4OC)n3n2)cc1` [A0547, N-(2-methoxybenzyl)-2-(4-methoxyphenyl)pyrazolo[1,5-a]pyrimidin-7-amine], for which the IC50 in data set [1] is above 50 µM. Further, the “observed toxicity or efficacy” value in data set [2] is >50 µM (no observed toxicity or efficacy in either assay tested).
On the same counts, the results for `CCc1c(C)nc2cc(-c3ccc(OC)c(OC)c3)nn2c1NCc1cc(OC)ccc1OC` [A0526, N-(2,5-dimethoxybenzyl)-2-(3,4-dimethoxyphenyl)-6-ethyl-5-methylpyrazolo[1,5-a]pyrimidin-7-amine] are above 50 µM and >50 µM (no observed toxicity or efficacy in either assay tested).
In turn, `Clc1ccc(-c2cc3nc4c(c(NCCc5ccccn5)n3n2)CCCC4)cc1` [A0442, 2-(4-chlorophenyl)-N-(2-(pyridin-2-yl)ethyl)-5,6,7,8-tetrahydropyrazolo[5,1-b]quinazolin-9-amine] had an IC50 in data set [1] above 10 µM. Further, in data set [2], the “toxicity in antiviral and counterscreen assays” value is >10uM (toxic to both antiviral and counterscreen at 50uM).
Regarding `COc1ccc(-c2cc3c(=O)[nH]nc(SCc4ccc5c(c4)OCO5)n3n2)cc1OC` [A0551, 7-(benzo[d][1,3]dioxol-5-ylmethylthio)-2-(3,4-dimethoxyphenyl)pyrazolo[1,5-d][1,2,4]triazin-4(5H)-one], in data set [1], the IC50 was above 50 µM. Besides, the “observed toxicity or efficacy” value in data set [2] was >50 µM (no observed toxicity or efficacy in either assay tested).
On to `COc1ccc(-c2cc3nc(-c4ccccc4)cc(NCc4ccccc4C)n3n2)cc1OC` [A0528, 2-(3,4-dimethoxyphenyl)-N-(2-methylbenzyl)-5-phenylpyrazolo[1,5-a]pyrimidin-7-amine], for which, in data set [1], the half-inhibitory concentration (IC50) was above 50 µM. Further, the “observed toxicity or efficacy” value in data set [2] is >50 µM (no observed toxicity or efficacy in either assay tested).
Molecule `COc1ccc(-c2c(C)nn3c(NCC(C)c4ccccc4)cc(C)nc23)cc1OC` (stereo not drawn) [A0549, 3-(3,4-dimethoxyphenyl)-2,5-dimethyl-N-(2-phenylpropyl)pyrazolo[1,5-a]pyrimidin-7-amine] yielded an IC50 in data set [1] above 50 µM. The “observed toxicity or efficacy” value in data set [2] was >50 µM (no observed toxicity or efficacy in either assay tested).
`CCc1c(C)nc2cc(-c3ccc(OC)c(OC)c3)nn2c1NCCc1ccccc1C` [A0439, 2-(3,4-dimethoxyphenyl)-6-ethyl-5-methyl-N-[2(2-methylphenyl)ethyl]pyrazolo[1,5-a]pyrimidin-7-amine] came in with an IC50 in data set [1] of around 5 µM. Besides, the “concentrations with significant antiviral activity” value in data set [3] is above 7.5 µM. Also, the “toxicity in the reporter assay” value in data set [4] was “increased toxicity at higher doses due to precipitation”.
Regarding `COc1ccc(-c2cc3nc(C)c(C)c(N4CCCC4)n3n2)cc1OC` [A0443, 2-(3,4-dimethoxyphenyl)-5,6-dimethyl-7-(pyrrolidin-1-yl)pyrazolo[1,5-a]pyrimidine], in data set [1], the IC50 was above 50 µM. The “observed toxicity or efficacy” value in data set [2] is >50 µM (no observed toxicity or efficacy in either assay tested).
Taken in the same sequence, the figures for `Cc1cc(NC(CO)C(O)c2ccccc2)n2nc(-c3cccc(F)c3)cc2n1` (stereo not drawn) [A0531, 2-(2-(3-fluorophenyl)-5-methylpyrazolo[1,5-a]pyrimidin-7-ylamino)-1-phenylpropane-1,3-diol] were above 50 µM and >50 µM (no observed toxicity or efficacy in either assay tested).
Taken in the same sequence, the figures for `COc1cc(OC)cc(-c2cc3nc(C)cc(NCC(C)c4ccccc4)n3n2)c1` (stereo not drawn) [A0525, 2-(3,5-dimethoxyphenyl)-5-methyl-N-(2-phenylpropyl)pyrazolo[1,5-a]pyrimidin-7-amine] were above 50 µM and >50 µM (no observed toxicity or efficacy in either assay tested).
`COc1ccc(-c2cc3nc4c(c(NCCc5cccnc5)n3n2)CCC4)cc1OC` [A0444, 2-(3,4-dimethoxyphenyl)-N-(2-(pyridin-3-yl)ethyl)-6,7-dihydro-5H-cyclopenta[d]pyrazolo[1,5-a]pyrimidin-8-amine]: the IC50 in data set [1] is above 10 µM. Also, the “toxicity in antiviral and counterscreen assays” value in data set [2] is >10uM (toxic to both antiviral and counterscreen at 50uM).
Consider `CCOc1ccc(-c2cc3c(SCc4cccc(C)c4)nccn3n2)cc1` [A0552, 2-(4-ethoxyphenyl)-4-(3-methylbenzylthio)pyrazolo[1,5-a]pyrazine], for which the IC50 in data set [1] was above 50 µM. Also, in data set [2], the “observed toxicity or efficacy” value was >50 µM (no observed toxicity or efficacy in either assay tested).
`CCc1c(C)nc2cc(-c3ccc(OC)c(OC)c3)nn2c1NCCc1ccc(OC)c(OC)c1` [A0438, N-(3,4-dimethoxyphenethyl)-2-(3,4-dimethoxyphenyl)-6-ethyl-5-methylpyrazolo[1,5-a]pyrimidin-7-amine] came in with a half-maximal inhibitory concentration (IC50) in data set [1] above 10 µM. In data set [2], the “toxicity in antiviral and counterscreen assays” value is >10uM (toxic to both antiviral and counterscreen at 50uM).
In turn, `COc1ccc(-c2cc3nc4c(c(NCc5ccccc5F)n3n2)CCCC4)cc1` [A0529, N-(2-fluorobenzyl)-2-(4-methoxyphenyl)-5,6,7,8-tetrahydropyrazolo[5,1-b]quinazolin-9-amine] had an IC50 in data set [1] above 50 µM. Moreover, the “observed toxicity or efficacy” value in data set [2] was >50 µM (no observed toxicity or efficacy in either assay tested).
Molecule `CCc1c(C)nc2cc(-c3ccc(OC)c(OC)c3)nn2c1NCCc1ccc(F)cc1` [A0440, 2-(3,4-dimethoxyphenyl)-6-ethyl-N-(4-fluorophenethyl)-5-methylpyrazolo[1,5-a]pyrimidin-7-amine] yielded an IC50 in data set [1] above 50 µM. For the same molecule, the “observed toxicity or efficacy” value in data set [2] was >50 µM (no observed toxicity or efficacy in either assay tested).
On the same counts, the results for `CCc1c(C)nc2cc(-c3cc(C)on3)nn2c1NCCc1ccccn1` [A0445, 6-ethyl-5-methyl-2-(5-methylisoxazol-3-yl)-N-(2-(pyridin-2-yl)ethyl)pyrazolo[1,5-a]pyrimidin-7-amine] are above 50 µM and >50 µM (no observed toxicity or efficacy in either assay tested).
